“Also recorded” adds a separate entry of the source.
Key:
[1] = test system: MC38 subcutaneous murine colorectal syngeneic model; assay: MC38 subcutaneous murine colorectal syngeneic model: tumour burden and survival; format: in vivo, female C57BL/6 mice
Procedure: Specifically, the effects of the combined therapy Tinostamustine and an […] antibody in the treatment of the MC38 subcutaneous murine colorectal syngeneic model in female C57BL/6 mice following 3 dose cycles was assessed. MC38 is a commonly used murine model for colorectal carcinoma.
Six groups of mice were randomly allocated a group, hereafter referred to as Groups 1 to 6, as in Table 3.
Tinostamustine was administered intravenously, specifically by slow intravenous injection at a rate of ˜60 s per mouse. Two groups of mice were administered tinostamustine at a dose of 5 mg/kg once weekly, either as a monotherapy (Group 3) or as a combination therapy (Group 5). […]
The MC38 cells were maintained in vitro with DMEM medium supplemented with 10% fetal bovine serum at 37° C. in an atmosphere of 5% CO2 in air. The cells in exponential growth phase were harvested and quantitated by cell counter before tumour inoculation. […]
Tumour volumes were measured twice a week after randomization in two dimensions using a caliper, and the volume was expressed in mm3 using the formula: “V=(L×W×W)/2, where V was tumour volume, L was tumour length (the longest tumor dimension) and W was tumour width (the longest tumour dimension perpendicular to L). […] The body weights and tumour volumes were measured by using StudyDirector™ software (version 3.1.399.19). […]

[2] = Myelosuppression on administration of Tinostamustine at the indicated dosage ranges; format: in vivo; details: below 40 mg/m^2 body surface area
Procedure: More particularly, the dosage ranges of Tinostamustine described herein may preferably avoid Tinostamustine causing cytotoxicity to immune cells. For comparison, the doses at which Tinostamustine are administered in accordance with the present invention are below those normally used to achieve an anti-cancer neoplastic effect (e.g. via inducing cytotoxicity in tumour cells) with Tinostamustine as a monotherapy (typically […]).

[3] = MC38 model: tolerability and body weight; format: in vivo, female C57BL/6 mice
Procedure: After tumour cell inoculation, the animals were checked daily for morbidity and mortality. During routine monitoring, the animals were checked for treatment effects on tumour growth, behaviour such as mobility, food and water consumption, body weight gain/loss (Body weights) were measured twice a week after randomization), eye/hair matting and any other abnormalities. Mortality and observed clinical signs were recorded for individual animals in detail.
Tumour volumes were measured twice a week after randomization in two dimensions using a caliper, and the volume was expressed in mm3 using the formula: “V=(L×W×W)/2, where V was tumour volume, L was tumour length (the longest tumor dimension) and W was tumour width (the longest tumour dimension perpendicular to L). Dosing as well as tumour and body weight measurements were conducted in a Laminar Flow Cabinet. The body weights and tumour volumes were measured by using StudyDirector™ software (version 3.1.399.19).

[4] = Phase 1B clinical trial of Tinostamustine in combination with Nivolumab: safety, tolerability, recommended dose; format: in vivo, human
Description: The clinical study relates to an open-label, single-centre, phase-1B clinical trial to determine the safety, tolerability, recommended dose and anti-cancer efficacy of Tinostamustine in combination with the anti-PD-1 monoclonal antibody (mAb), Nivolumab in patients with advanced melanoma receiving standard-of-care treatment. Tinostamustine is a compound having the following structural formula: […]
A total of 17 patients with advanced melanoma were recruited to a Phase IB study to characterise the safety, tolerability, recommended dose and preliminary efficacy in the treatment of cancer of Tinostamustine in combination with the immune checkpoint inhibitor, Nivolumab.
Tinostamustine was administered intravenously. Four patients were administered tinostamustine at a dose of 15 mg/m^2 (referred to as dose level 1—DL1) for each cycle. Thirteen patients were administered with Tinostamustine at a dose of 30 mg/m^2 (referred to as dose level 2—DL2) for each cycle.
The primary endpoint of the study was dose limiting toxicity (DLT) observed during the first 6 weeks of trial treatment. […]

metastatic melanoma = details: cited from earlier work
[5] = patients with advanced melanoma; cited from earlier work
[6] = test system: renal cell carcinoma (RCC); details: cited from earlier work
advanced melanoma [7] = details: cited from earlier work
advanced melanoma [8] = details: in vivo; cited from earlier work

## Cn1c(CCCCCCC(=O)NO)nc2cc(N(CCCl)CCCl)ccc21 [Tinostamustine]
[1]; dose group not specified
  tumour burden / anti-tumour effect: has anti-tumour effect
[1]; vs vehicle control
  survival of mice: significantly prolonged the survival; also recorded: increases survival
[2]
  myelosuppression: no myelosuppression
[3]; 3 weeks of treatment
  tolerability: well-tolerated
[3]; mean body weight during treatment
  body weight: no loss of body weight; also recorded: weight gain
[4]; Tinostamustine doses between 10 mg/m^2 and 30 mg/m^2 body surface area
  safety concerns: without any significant safety concerns
[4]; in combination with Nivolumab 3 mg/kg
  recommended dose: 30 mg/m^2

## Ipilimumab: anti-CTLA-4 monoclonal antibody
Metastatic melanoma
  response rate: 15-20%
[5]
  high-grade adverse events: 28 % of patients
[6]
  response rate: minimal activity

## Nivolumab
Advanced melanoma [7]; first-line
  objective response rate: 40.0%
  progression-free survival: 5.1 months
Advanced melanoma [7]; versus dacarbazine, first-line
  overall survival improved by: 58%
Advanced melanoma [7]; versus dacarbazine, p<0.001
  overall survival HR: 0.42
  progression-free survival HR: 0.43
Advanced melanoma [7]; versus dacarbazine
  progression-free survival improved by: 57%
Metastatic melanoma
  response rate: 43%
[5]
  high-grade adverse events: 23 % of patients
[6]
  response rate: ~25%
Advanced melanoma [8]
  median overall survival: not reached
